Laboratory results: patent US20250235418A1, “Butyrate Analogues and Methods of Use for HIF Stabilization and Treatment of Bowel Disease” (THE REGENTS OF THE UNIVERSITY OF COLORADO, A BODY CORPORATE, priority 2022, published 2025)
Entries after “also recorded” stand apart in the source; their conditions may differ. Read-outs that look alike come from different tables or passages of the source.

Key:
PHD2181-402 [1] = molecular target: T1, PHD2181-402 (Homo sapiens, UniProt Q9GZT9); experiment: bioluminescent succinate detection assay of recombinant PHD2181-402 activity/inhibition; assay type: biochemical; conditions: for fold less effective at inhibiting PHD2181-402 than butyrate: compared with butyrate
T1 construct: made in house
T1 sequence (Q9GZT9 181-402): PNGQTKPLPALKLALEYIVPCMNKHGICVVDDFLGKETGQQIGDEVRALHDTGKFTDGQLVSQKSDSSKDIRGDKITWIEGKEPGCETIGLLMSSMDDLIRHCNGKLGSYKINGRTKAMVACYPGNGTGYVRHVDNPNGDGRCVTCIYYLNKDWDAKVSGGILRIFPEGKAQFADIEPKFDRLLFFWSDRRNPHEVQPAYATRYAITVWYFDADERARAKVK
Description: To pinpoint if butyrate inhibits PHDs directly, we expressed recombinant PHD derived from the human PHD2 sequence. There are three human PHDs: PHD1, PHD2, and PHD3, with PHD2 being the most abundant and expressed in the majority of tissues, the most important regulator of HIF, particularly HIF-1α, and the only PHD that is embryonically lethal when deleted. PHD1 is exclusively localized to the nucleus, whereas PHD2 is mainly cytoplasmic, and PHD3 is both. […] Sequence comparisons and modeling studies indicate that the PHD2 active site is highly conserved among the PHDs.
IC50s depend on exact experimental conditions, making direct comparisons and global applications difficult.

PHDs = conditions: range across studies, assay conditions vary; read-out: reported IC50s; cited from earlier work
[2] = tested on: PHD (2-OG accumulation) in T84 IECs; experiment: 2-OG levels in T84 cells as biomarker of PHD inhibition; assay type: cell-based; conditions: 3 h, 10 mM butyrate, 30 μM IOX2
Method: (B) 2-OG concentrations in T84 cells treated with 10 mM butyrate with or without 1 mM MCPA or 30 μM IOX2 for 3 h
The relationship between butyrate and HIF, were examined whether butyrate influences PHD activity by monitoring 2-OG levels. […] In this, we considered such 2-OG accumulation as a metabolic biomarker of PHD inhibition (FIG. 3A).

[3] = tested on: HIF-1α / PHDs in murine colon tissue; experiment: rectal gavage of butyrate or IOX2 in antibiotic SCFA-depleted mice; assay type: in vivo; conditions: 1 h, 100 mM butyrate, 1.5 mM IOX2
HIF1α in T84 cells = experiment: HIF1α immunoblot in T84 cells (MBA vs BA); assay type: cell-based; conditions: for HIF1α stabilization over time (immunoblot): 5 mM BA and MBA, IOX4 positive control
Method: (A) Structures of butyrate derivatives investigated in initial screen for HIF stabilization. Immunoblot of HIF1a protein levels in Caco-2 cells (B) and T84 cells (C) exposed to veh (HBSS+), […], or 5 mM butyrate derivatives for 6h. (D) Dose response study of HIF1a accumulation in T84 cells treated with decreasing concentrations of MBA and BA for 6 h.
(A) Immunoblots of HIF1a protein over time after exposure of T84 cells to 5 mM BA and MBA. (B) Mesoscale assay of HIF1a protein over time in caco-2 cells treated with 5 mM MBA compared to veh. (C) HIF1a and HIF target (BNIP3) protein in caco-2 cells exposed to veh (HBSS+), […] or 5 mM MBA. Data are presented as mean+S.E.M, *p<0.05, **p<0.01, ***p<0.001.
(§1) Endogenous and non-endogenous butyrate derivatives with specifically chosen functional groups at different positions within the small molecule and assess their effects on HIF stabilization (FIG. 21A). To study a small library of butyrate derivatives we employed an electrochemiluminescence based assay to quantify HIF1α levels using the Meso Scale Discovery (HIF1α MSD assay, http://www.mesoscale.com) technology. Similar to the sandwich enzyme-linked immunosorbent assay (ELISA), this technology captures and detects HIF1α protein using two specific antibodies but utilizes electrochemiluminescence-based signal generation and detection. Using lysates from intestinal epithelial cells (IECs) caco-2 and T84 exposed to a physiological relevant concentration of 5 mM butyrate derivatives for 4h, this assay was employed to determine HIF1α protein concentration. A bona-fide and potent PHD2 inhibitor (IOX4) was used to stabilize HIF1α as a positive control. Various butyrate derivatives increased HIF1α relative concentration in both cell lines compared to low signals detected in untreated lysates. […] We decided to focus on this interesting butyrate derivative for further studies.
(§2) To elucidate the effectiveness of MBA to stabilize HIF1α over time and possibly shine light on how quickly it can be metabolized in-vitro, time-course studies where performed between BA and MBA, IOX4 was used as a positive control. […] Employing the HIF1α MSD assay, we screened for various timepoints in caco-2 cell lysates exposed to MBA (5 mM). […] BNIP3 is involved in cell survival and is a known HIF1α target that is induced through chemical stabilization of HIF or hypoxia. BNIP3 promoter comprises a functional hypoxia response element (HRE) and can be activated by HIF1α.[5] Parallel to our HIF stabilization time course studies, we wanted to assess the transcriptional activity of the stabilized protein over time.

HIF1α in caco-2 cells = experiment: HIF1α MSD assay and immunoblot in caco-2 cells; assay type: cell-based; conditions: for BNIP3 immunoblot over time: c2bbe cell lysates, various timepoints
Method: (A) Structures of butyrate derivatives investigated in initial screen for HIF stabilization. […] (D) Dose response study of HIF1a accumulation in T84 cells treated with decreasing concentrations of MBA and BA for 6 h.
(A) Immunoblots of HIF1a protein over time after exposure of T84 cells to 5 mM BA and MBA. (B) Mesoscale assay of HIF1a protein over time in caco-2 cells treated with 5 mM MBA compared to veh. […] Data are presented as mean+S.E.M, *p<0.05, **p<0.01, ***p<0.001.
HIF1a Mesoscale assay of BA derivatives investigated in caco-2 (A) and T84 (B) intestinal epithelial cells (5 mM, 6 h), identifying MBA as a promising candidate in HIF1a stabilization (Veh=HBSS+).
as §1, §2

[4] = tested on: HIF target genes in T84 cells; experiment: real-time PCR of HIF target genes BNIP3 and CAIX in T84 cells; assay type: cell-based; conditions: 16h
Method: (A) Exposure of T84 cells to Veh, BA or MBA (5 mM, 16 h) induced HIF target gene expression of CAIX and BNIP3. […] (C) Non-targeting control and T84 HIF1b depleted cells were analyzed for HIF1b expression by western blotting, shown with a representative blot. Quantification of HIF1b decrease was performed using ACTB-normalized densitometry. qPCR data was analyzed by One-way ANOVA with Bonferroni for post hoc correction and presented as mean±S.E.M, **p<0.01, ***p<0.001, ****p<0.0001 of three independent experiments.
Following these findings, we then explored if the MBA-induced stabilization of HIF was reflected in the transcriptional regulation of target genes. We utilized real-time PCR to study the influence of MBA mediated HIF stabilization in the induction of established HIF targets, BNIP3 (cell survival) and CAIX (pH regulation).
Furthermore, to confirm MBA-induced HIF transcriptional activity, we quantified the induction of BNIP3 and CAIX by BA or MBA (5 mM, 16h) in lentiviral shRNA-mediated knockdown of HIF1β relative to non-targeting shRNA controls. […] These findings confirm that through MBA exposure, HIF is stabilized and it is transcriptionally active.

HIF regulated targets = experiment: intraperitoneal injection in C57BL/6 mice, HIF regulated targets (EPO, GLUT1); assay type: in vivo; conditions: MBA 80 mg/kg, 24h
Method: Erythropoietin (EPO) is regulated by HIF stabilization. (A) EPO protein in blood serum was assessed by mesoscale assay (n=6-8). qPCR mRNA expression of HIF target mGLUT1 in kidney (B) and colon tissue (C) (n=3-8). Data analyzed by One-way ANOVA with Tukey for post hoc correction and presented as mean±S.E.M of two independent experiments, *p<0.05, **p<0.01, ***p<0.001, ****p<0.0001 […]
At 24 h, mice were sacrificed followed by exsanguination, extraction of right kidney and distal colon for analysis of HIF stabilization and HIF target gene expression. SHBA induces HIF regulated targets in vivo. Erythropoietin (EPO) is regulated by HIF stabilization. (A) EPO protein in blood serum was assessed by mesoscale assay (n=6-8). (B) qPCR mRNA expression of HIF target mGLUT1 in colon tissue (n=3-4). Data are presented as mean±S.E.M of two independent experiments, *p<0.05, **p<0.01.
A typical physiologic response to hypoxia is the increase in red blood cell production. Naturally, HIF is in charge of this response by regulating cell-type specific gene expression that leads to increased levels of the hormone erythropoietin (EPO).[10] […] We lastly explored the in-vivo effects of MBA in mediating induction of genes tightly regulated by HIF. […] After 24h of treatment, they were sacrificed and quickly exsanguinated to measure EPO levels in serum. […] Furthermore, we studied the induction of GLUT1, another classic HIF target responsible for the transport of various monosaccharides. Kidney and colon tissue were analyzed by real-time PCR to compare BA and MBA head-to-head. […] These findings support the ability of MBA to stabilize HIF in-vivo leading to the induction of classic target genes and transcription of a tightly regulated protein EPO.

PHD2181-402 [5] = molecular target: T1, PHD2181-402; experiment: WaterLOGSY 1D NMR binding to PHD2181-402; conditions: 10 mM SCFA, 25 μM PHD2181-402
Description: Protons attached to C4 were selectively inverted and acted as source of magnetization transfer. […] (G) Protons attached to C2 were selectively inverted.
Measurements were repeated 3 times.
This method enables sensitive and robust detection of binding (dissociation constants as weak as μM to low mM) based on the magnetization transfer between water molecules, proteins, and ligands of interest in close proximity via dipolar proton-proton cross-relaxation (nuclear Overhauser effect, NOE). […] Binding and non-binding ligands can be distinguished in a WaterLOGSY spectrum via their opposite signs in relation to water for their corresponding peaks.
This technique allows for mapping of the ligand pharmacophore by monitoring the response of individual protons to an increase of ROEs contribution to the overall cross relaxation rate.

[6] = calculated from measured IC50 accounting for substrate conversion, n = 4, error: SEM, read-out: True IC50 for PHD2181-402

CCC(CC)C(=O)O [2-Ethylbutyrate]
IC50 (PHD2181-402 [1]; [6]): 77 ± 6 mM

CC(O)CC(=O)O (centres unmarked) [3-Hydroxybutyrate]
IC50 (PHD2181-402 [1]; [6]): 14 ± 1 mM

COC(=O)CNC(=O)C(=O)OC [DMOG, dimethyloxalylglycine, reference compound]
IC50 (PHD2181-402 [1]; 1 μM PHD2181-402, 10 μM 2-OG, 10-minute reaction, n=5-12, error: SEM, read-out: true half maximal inhibitory concentration (IC50) for PHD2181-402): 1.9 ± 0.5 mM
IC50 (PHDs): 0.00289 to 4 mM

O=C(O)CNC(=O)c1c(O)c2ccccc2n(Cc2ccccc2)c1=O [IOX2, reference compound]
2-OG levels compared to control [2]: to lesser extent than butyrate
colon tissue 2-OG levels after antibiotics [3]: rescued
mRNA expression of HIF-1α targets Bnip3, Bnip3l, Glu1 after antibiotics [3]: rescued

CC(C)(C)OC(=O)c1ccc(-n2[nH]cc(-n3ccnn3)c2=O)nc1 [IOX4, reference compound]
HIF1α stabilization over time (immunoblot) (HIF1α in T84 cells; T84 cells): no longer effective at the 72h timepoint
BNIP3 immunoblot over time (HIF1α in caco-2 cells): supported active HIF1α transcription

O=C(O)CCCS [MBA, 4-Mercaptobutyrate]
HIF1α immunoblot compared with butyrate (HIF1α in T84 cells; T84, equimolar concentration (5 mM)): exceeding the capabilities of butyrate
HIF1α stabilization over time (immunoblot) (HIF1α in T84 cells; T84 cells): observed clearly up to 72h
dose response of HIF1α accumulation (HIF1α in T84 cells; T84 cells, decreasing concentrations, 6 h): can stabilize HIF at the low millimolar range
HIF target gene induction compared to BA ([4]; T84, 5 mM): more potent than BA; also recorded: more prominent induction of HIF target genes compared to BA
induction of HIF target genes BNIP3 and CAIX ([4]; T84, 5 mM): significant induction
induction of BNIP3 and CAIX in cells lacking HIF1β ([4]; T84 HIF1β shRNA knockdown, 5 mM): complete loss of induction
BNIP3 immunoblot over time (HIF1α in caco-2 cells): supported active HIF1α transcription
HIF1α immunoblot compared with IOX4 (HIF1α in caco-2 cells; caco-2, 5 mM MBA vs IOX4 (10 μM)): at least as much as IOX4
HIF1α immunoblot compared with butyrate (HIF1α in caco-2 cells; caco-2, equimolar concentration (5 mM)): exceeding the capabilities of butyrate
HIF1α relative concentration over time (MSD assay) (HIF1α in caco-2 cells; caco-2 cell lysates, 5 mM, up to 72h): rapidly stabilized (3h)
HIF1α relative concentration (MSD assay) (HIF1α in caco-2 cells; caco-2 lysates, 5 mM, compared with IOX4): exceeded HIF stabilization in caco-2 compared to the potent IOX4 PHD2 inhibitor
GLUT1 mRNA in colon tissue (HIF regulated targets; IP, BA 73 mg/kg): significantly increased in colon tissue
GLUT1 mRNA in kidney (HIF regulated targets; IP, BA 73 mg/kg): induction of GLUT1 in kidney
EPO concentration in serum (HIF regulated targets; one IP injection, compared to vehicle, DMOG and BA): significantly higher concentration of EPO

CC(=O)O [acetate, Acetic acid, reference compound]
binding to PHD2181-402 by WaterLOGSY (PHD2181-402 [5]): no binding
fold less effective at inhibiting PHD2181-402 than butyrate (PHD2181-402 [1]): ~10 fold

CCC(=O)O [propionate, propionic acid, reference compound]
binding to PHD2181-402 by WaterLOGSY (PHD2181-402 [5]): no binding
fold less effective at inhibiting PHD2181-402 than butyrate (PHD2181-402 [1]): ~10 fold

CCCCC(=O)O [valerate, valeric acid, reference compound]
binding to PHD2181-402 by WaterLOGSY (PHD2181-402 [5]): no binding
fold less effective at inhibiting PHD2181-402 than butyrate (PHD2181-402 [1]): ~3 fold
